Assay results: ChEMBL document CHEMBL5236551, “Andrographolide and its derivatives: Current achievements and future perspectives” (Eur J Med Chem, 2021)
Converted amounts (≈) assume the structure as drawn. Values belong to the compound of their own block, whether it stands above or below them.

Experiments:
Pseudomonas aeruginosa [1] = test: Antibiofilm activity against Pseudomonas aeruginosa MTCC 7814 assessed as inhibition of biofilm formation at 0.1 mM in presence of azithromycin or gentamicin incubated for 48 hrs relative to control; type: functional; settings: MTCC 7814, 48 h
Rattus norvegicus [2] = test: Anti-inflammatory activity against egg albumin-induced paw edema in Sprague-Dawley rat assessed as inhibition of paw edema at 0.90 mmol/Kg, po preadministered once daily via gavage for 3 days followed by egg albumin addition measured at 120 min by plethysmometric analysis relative to control; type: functional; settings: 72 h, at 0.9 mmol/kg, time 3 day
Mus musculus = test: Anti-inflammatory activity against dimethylbenzene-induced auricular edema Kunming mouse model assessed as inhibition of ear edema at 1.35 mmol/Kg, po administered once daily via gavage for 3 days relative to control; type: functional; settings: 72 h, time 3 day
[3] = Antimigratory activity against human LX2 cells assessed as inhibition rate at 5 uM relative to control; type: functional; settings: LX-2
[4] = Inhibition of TGF-beta1 induced mesenchymal transformation in human A549 cells assessed as inhibition rate at 1.25 uM relative to control; type: functional
[5] = Antimigratory activity against Ang II-induced human Cardiac fibroblast cells assessed as inhibition rate at 0.16 uM relative to control; type: functional
HCT-116 [6] = test: Antiproliferative activity against human HCT-116 cells assessed as cell growth inhibition incubated for 72 hrs by CCK8 assay; type: functional, cell-based; settings: HCT-116, 72 h
MCF7 [7] = test: Antiproliferative activity against human MCF7 cells assessed as cell growth inhibition incubated for 72 hrs by CCK8 assay; type: functional, cell-based; settings: MCF7, 72 h
[8] = tested on: Human immunodeficiency virus 1; test: Antiviral activity against HIV-1 infected in human C8166 cells; type: functional, organism-based; settings: Human immunodeficiency virus 1, C8166
Rattus norvegicus [9] = test: Anti-inflammatory activity against egg white-induced paw edema in rat model assessed as detumescence rate measured after 6 hrs relative to control; type: functional
Klebsiella aerogenes = test: Antibacterial activity against Klebsiella aerogenes assessed as bacterial growth inhibition by agar dilution method; type: functional
Pseudomonas aeruginosa [10] = test: Antibacterial activity against Pseudomonas aeruginosa assessed as bacterial growth inhibition by agar dilution method; type: functional
DU-145 = test: Cytotoxicity against human DU-145 cells assessed as cell growth inhibition after 48 hrs by SRB assay; type: functional, cell-based; settings: DU-145, 48 h
NCI-H522 = test: Cytotoxicity against human NCI-H522 cells assessed as cell growth inhibition after 48 hrs by SRB assay; type: functional, cell-based; settings: NCI-H522, 48 h
UACC-62 = test: Cytotoxicity against human UACC-62 cells assessed as cell growth inhibition after 48 hrs by SRB assay; type: functional, cell-based; settings: UACC-62, 48 h
SW-620 = test: Cytotoxicity against human SW620 cells assessed as cell growth inhibition after 48 hrs by SRB assay; type: functional, cell-based; settings: SW-620, 48 h
OVCAR-8 = test: Cytotoxicity against human OVCAR-8 cells assessed as cell growth inhibition after 48 hrs by SRB assay; type: functional, cell-based; settings: OVCAR-8, 48 h
HT-29 = test: Cytotoxicity against human HT-29 cells assessed as cell growth inhibition after 48 hrs by SRB assay; type: functional, cell-based; settings: HT-29, 48 h
NCI/ADR-RES = test: Cytotoxicity against human MCF7/ADR cells assessed as cell growth inhibition after 48 hrs by SRB assay; type: functional, cell-based
MCF7 [11] = test: Cytotoxicity against human MCF7 cells assessed as cell growth inhibition after 48 hrs by SRB assay; type: functional, cell-based; settings: MCF7, 48 h
PC-3 = test: Cytotoxicity against human PC-3 cells assessed as cell growth inhibition after 48 hrs by SRB assay; type: functional, cell-based; settings: PC-3, 48 h
HCT-116 [12] = test: Antiproliferative activity against human HCT-116 cells assessed as cell growth inhibition measured after 48 hrs by MTT assay; type: functional, cell-based; settings: HCT-116, 48 h
Rattus norvegicus [13] = species: Rattus norvegicus; test: Antiplatelet activity against collagen-induced Sprague-Dawley rat platelet aggregation assessed as inhibition of platelet aggregation preincubated for 2 mins followed by collagen addition by turbidimetric method; type: functional; settings: Arterial blood
Rattus norvegicus [14] = species: Rattus norvegicus; test: Antiplatelet activity against thrombin-induced Sprague-Dawley rat platelet aggregation assessed as inhibition of platelet aggregation preincubated for 2 mins followed by thrombin addition by turbidimetric method; type: functional; settings: Arterial blood
Rattus norvegicus [15] = species: Rattus norvegicus; test: Antiplatelet activity against arachidonic acid-induced Sprague-Dawley rat platelet aggregation assessed as inhibition of platelet aggregation preincubated for 2 mins followed by arachidonic acid addition by turbidimetric method; type: functional; settings: Arterial blood

SMILES: C=C1CCC2[C@](C)(CO)[C@H](O)CC[C@@]2(C)[C@@H]1/C=C/C1=CCOC1=O (stereo partly drawn)
inhibition at 100 µM (Pseudomonas aeruginosa [1]): 92%

SMILES: C=C1CC[C@@H]2[C@](C)(COC(=O)c3cccnc3)[C@H](OC(=O)c3cccnc3)CC[C@@]2(C)[C@@H]1/C=C/C1=CC(=C/c2ccc(Cl)cc2)/OC1=O
inhibition in vivo at 900 µmol/kg (Rattus norvegicus [2]): 50.4%
inhibition in vivo at 1350 µmol/kg (Mus musculus): 79.4%

SMILES: C=C1CCC2[C@](C)(C=O)c3nc(N)sc3C[C@@]2(C)[C@@H]1/C=C/C1=CCOC1=O (stereo partly drawn)
inhibition at 5 µM [3]: > 20%
inhibition at 1.25 µM [4]: > 65%

SMILES: C=C1CCC2[C@](C)(CO)NC(=O)CC[C@@]2(C)[C@@H]1/C=C/C1=CCOC1=O (stereo partly drawn)
inhibition at 5 µM [3]: > 40%
inhibition at 0.16 µM [5]: > 95%
inhibition at 1.25 µM [4]: > 60%

IC50 (HCT-116 [6]): 2.49 µM
IC50 (MCF7 [7]): 7.8 µM
SMILES: C=C1CC[C@H]2[C@@](C)(C=CC(=O)[C@@]2(C)COC(=O)c2ccccc2)[C@@H]1C/C=C1/C(=O)OC[C@H]1O

IC50 [8]: 4.1 µM
SMILES: C=C1CCC2[C@](C)(CO)[C@H](O)CC[C@@]2(C)[C@@H]1CCC1C(=O)N(C)C[C@H]1O (stereo partly drawn)

SMILES: C[C@@]12CCC3[C@](C)(COC(=O)CCC(=O)O)[C@H](OC(=O)CCC(=O)O)CC[C@@]3(C)[C@@H]1CC(C1=CCOC1=O)O2 (stereo partly drawn)
inhibition (INH) (Rattus norvegicus [9]): 93.18%

MIC (Klebsiella aerogenes): 18.9 µg/mL (≈ 47.7 µM)
MIC (Pseudomonas aeruginosa [10]): 18.9 µg/mL (≈ 47.7 µM)
SMILES: C=C1CCC2[C@](C)(CO)[C@H](O)CC[C@@]2(C)[C@@H]1C/C=C(/C(=O)OCC)[C@H](O)CO (stereo partly drawn)

SMILES: C=C1CCC2[C@](C)(CO)[C@H](O)CC[C@@]2(C)[C@@H]1C/C=C/c1ccc(F)cc1 (stereo partly drawn)
IC50 (DU-145): 7 µM
IC50 (NCI-H522): 3 µM
IC50 (UACC-62): 17 µM
IC50 (SW-620): 20 µM
IC50 (OVCAR-8): 2 µM
IC50 (HT-29): 16 µM
IC50 (NCI/ADR-RES): 4 µM
IC50 (MCF7 [11]): 14 µM
IC50 (PC-3): 14 µM

IC50 (HCT-116 [12]): 5.8 µM
SMILES: C=C1CC[C@@H]2[C@](C)(COC(C)=O)[C@H](OC(C)=O)CC[C@@]2(C)[C@@H]1CC(Nc1ccccc1SC)C1=CCOC1=O (stereo partly drawn)

IC50 (Rattus norvegicus [13]): 0.5 µM
IC50 (Rattus norvegicus [14]): 0.36 µM
IC50 (Rattus norvegicus [15]): 0.48 µM
SMILES: C=C1CCC2[C@](C)(COC(=O)CCC(=O)O)[C@H](OC(=O)CCC(=O)O)CC[C@@]2(C)[C@@H]1/C=C/c1cc(=O)oc2cc(OC(C)=O)ccc12 (stereo partly drawn)

IC50 [8]: 9.69 µM
SMILES: C=C1CCC2[C@](C)(COC(=O)Cc3cccc4ccccc34)[C@H](OC(=O)c3cccnc3)CC[C@@]2(C)[C@@H]1/C=C/C1=CCOC1=O (stereo partly drawn)
